In ChEMBL document CHEMBL3638862, “Radiolabeled PDE10 inhibitors” (2014):

Biological target: cAMP and cAMP-inhibited cGMP 3',5'-cyclic phosphodiesterase 10A (Homo sapiens, UniProt Q9Y233)
Assay: Florescence Polarization Assay: The activity of the compounds in accordance with the present invention as PDE10 inhibitors may be readily determined without undue experimentation using a fluorescence polarization (FP) methodology well known in the art (Huang, W., et al., J. Biomol Screen, 2002, 7: 215). […] PDE10A2 was amplified from human fetal brain cDNA (Clontech, Mountain View, Calif.) using a forward primer corresponding to nucleotides 56-77 of human PDE10A2 (Accession No. AF127480, Genbank Identifier 4894716), containing a Kozak consensus sequence.

cAMP and cAMP-inhibited cGMP 3',5'-cyclic phosphodiesterase 10A, sequence (Q9Y233 whole entry): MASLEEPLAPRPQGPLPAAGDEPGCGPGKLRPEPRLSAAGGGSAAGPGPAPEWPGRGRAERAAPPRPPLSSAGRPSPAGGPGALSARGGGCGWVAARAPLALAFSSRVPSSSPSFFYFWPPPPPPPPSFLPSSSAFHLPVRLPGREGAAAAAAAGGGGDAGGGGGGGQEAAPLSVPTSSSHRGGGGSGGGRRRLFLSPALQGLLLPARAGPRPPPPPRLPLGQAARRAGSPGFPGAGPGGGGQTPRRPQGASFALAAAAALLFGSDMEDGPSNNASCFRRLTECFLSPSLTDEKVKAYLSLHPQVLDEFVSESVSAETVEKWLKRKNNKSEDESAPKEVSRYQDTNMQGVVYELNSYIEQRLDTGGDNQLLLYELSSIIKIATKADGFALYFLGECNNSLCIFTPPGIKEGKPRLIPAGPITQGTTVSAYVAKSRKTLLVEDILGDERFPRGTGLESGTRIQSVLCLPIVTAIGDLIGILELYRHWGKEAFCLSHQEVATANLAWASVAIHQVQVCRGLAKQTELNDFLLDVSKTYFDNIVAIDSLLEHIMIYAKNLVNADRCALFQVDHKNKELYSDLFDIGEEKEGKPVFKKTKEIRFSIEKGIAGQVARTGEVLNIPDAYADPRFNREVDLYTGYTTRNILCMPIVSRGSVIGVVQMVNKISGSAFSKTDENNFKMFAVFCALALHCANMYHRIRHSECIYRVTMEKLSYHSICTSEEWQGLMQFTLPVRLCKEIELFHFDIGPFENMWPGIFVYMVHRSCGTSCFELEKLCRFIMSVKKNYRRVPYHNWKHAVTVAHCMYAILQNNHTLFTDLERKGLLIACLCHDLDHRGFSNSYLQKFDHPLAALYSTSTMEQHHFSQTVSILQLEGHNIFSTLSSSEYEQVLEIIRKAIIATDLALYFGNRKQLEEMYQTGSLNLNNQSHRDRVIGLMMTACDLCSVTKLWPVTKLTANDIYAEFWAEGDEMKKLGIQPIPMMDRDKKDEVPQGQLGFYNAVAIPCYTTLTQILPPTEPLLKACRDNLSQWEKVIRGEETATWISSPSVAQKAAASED

- Ki: 0.79 nM
SMILES: COc1ccc(-n2c(CCN3C(=O)c4cccc(OCC(F)(F)F)c4C3=O)nc3ccccc3c2=O)cc1
